Experimental data reported in ChEMBL document CHEMBL4346660, “Cryptolepine and aromathecin based mimics as potent G-quadruplex-binding, DNA-cleavage and anticancer agents: Design, synthesis and DNA targeting-induced apoptosis” (Eur J Med Chem, 2019).
Active and inactive are the calls of the source. The calls are words filed in the database; no cut-off is given here.

What was measured:
[1] = tested on: MGC-803; experiment: Antiproliferative activity against human MGC803 cells assessed as reduction in cell viability incubated for 48 hrs by MTT assay; assay type: functional, cell-based; details: MGC-803, 48 h
[2] = tested on: T-24; experiment: Antiproliferative activity against human T24 cells assessed as reduction in cell viability incubated for 48 hrs by MTT assay; assay type: functional, cell-based; details: T-24, 48 h
[3] = tested on: NCI-H460; experiment: Antiproliferative activity against human NCI-H460 cells assessed as reduction in cell viability incubated for 48 hrs by MTT assay; assay type: functional, cell-based; details: NCI-H460, 48 h
[4] = tested on: HepG2; experiment: Antiproliferative activity against human HepG2 cells assessed as reduction in cell viability incubated for 48 hrs by MTT assay; assay type: functional, cell-based; details: HepG2, 48 h
[5] = tested on: L02; experiment: Cytotoxicity against human HL7702 cells assessed as reduction in cell viability incubated for 48 hrs by MTT assay; assay type: cell-based; details: L02, 48 h
[6] = tested on: MGC-803; experiment: Antitumor activity against human MGC803 cells xenografted in BALB/C mouse assessed as tumor growth inhibition at 6 mg/kg, ip administered every other day for 2 weeks measured during compound dosing relative to control; assay type: functional; details: MGC-803, ip, 336 h, read-out: TGI
[7] = tested on: DNA; experiment: Binding affinity to Escherichia coli supercoiled pBR322 DNA assessed as DNA intercalation at 5 uM after 3 hrs by ethidium bromide staining-based agarose gel electrophoresis analysis; assay type: nucleic-acid assay

| Compound | IC50 [1] [µM] | IC50 [2] [µM] | IC50 [3] [µM] | IC50 [4] [µM] | IC50 [5] [µM] | inhibition in vivo at 6 mg/kg [6] [%] | Activity [7] |
| --- | --- | --- | --- | --- | --- | --- | --- |
| Clc1ccc2nc3c(c(NCCCN4CCOCC4)c2c1)Cc1ccccc1-3 | 6.89 | 4.32 | 5.21 | 5.9 | 7.12 |  |  |
| Brc1ccc2nc3c(c(NCCCN4CCOCC4)c2c1)Cc1ccccc1-3 | 7.5 | 9.41 | 8.57 | 6.32 | 5.71 |  |  |
| COc1cc2c(cc1OC)-c1nc3ccc(C)cc3c(NCCCN3CCOCC3)c1C2 | 3.5 | 4.62 | 5.64 | 7.46 | 7.72 |  |  |
| CN(C)CCNc1c2c(nc3ccc(Cl)cc13)-c1ccccc1C2 | 3.49 | 1.74 | 4.96 | 6.71 | 3.6 |  |  |
| COc1cc2c(cc1OC)-c1nc3ccccc3c(NCCCN(C)C)c1C2 | 5.17 | 2.47 | 3.92 | 4.6 | 4.35 |  |  |
| CC[C@@]1(O)C(=O)OCc2c1cc1n(c2=O)Cc2cc3ccccc3nc2-1 [CAMPTOTHECIN] | 4.27 | 3.09 | 5.37 | 5.69 | 2.15 | 62.3 |  |
| c1ccc2c(c1)Cc1c-2nc2ccccc2c1NCCCN1CCOCC1 | 1.95 | 1.43 | 4.6 | 4.48 | 4.73 |  |  |
| COc1cc2c(cc1OC)-c1nc3ccc(C)cc3c(NCCCN(C)C)c1C2 | 5.08 | 4.64 | 5.52 | 12 | 4.94 |  |  |
| CN(C)CCNc1c2c(nc3ccc(Br)cc13)-c1ccccc1C2 | 2.98 | 2.21 | 2.8 | 4.18 | 6.43 |  |  |
| COc1cc2c(cc1OC)-c1nc3ccccc3c(NCCN(C)C)c1C2 | 1.36 | 1.82 | 3.1 | 3.14 | 2.06 |  |  |
| Cc1ccc2nc3c(c(NCCCN4CCOCC4)c2c1)Cc1ccccc1-3 | 1.42 | 0.58 | 0.89 | 1.88 | 1.67 |  |  |
| COc1cc2c(cc1OC)-c1nc3ccc(F)cc3c(NCCCN(C)C)c1C2 | 2.11 | 2.86 | 3.52 | 5.23 | 3.07 |  |  |
| CC[n+]1c(-c2ccccc2)c2cc(N)ccc2c2ccc(N)cc21 |  |  |  |  |  |  | Active |
| COc1cc2c(cc1OC)-c1nc3ccc(F)cc3c(NCCCN3CCOCC3)c1C2 | 3.7 | 3.74 | 6.42 | 8.74 | 3.71 |  |  |
| Cc1ccc2nc3c(c(NCCCN(C)C)c2c1)Cc1ccccc1-3 | 0.86 | 0.84 | 1.16 | 1.19 | 0.58 |  |  |
| CN(C)CCNc1c2c(nc3ccccc13)-c1ccccc1C2 | 0.93 | 0.61 | 1.23 | 2.31 | 1.31 |  |  |

| Compound | IC50 [1] [µM] | IC50 [2] [µM] | IC50 [3] [µM] | IC50 [4] [µM] | IC50 [5] [µM] | inhibition in vivo at 6 mg/kg [6] [%] | Activity [7] |
| --- | --- | --- | --- | --- | --- | --- | --- |
| COc1cc2c(cc1OC)-c1nc3ccc(Cl)cc3c(NCCN(C)C)c1C2 | 2.22 | 2.21 | 2.55 | 3.12 | 2.56 |  |  |
| CN(C)CCCNc1c2c(nc3ccc(Br)cc13)-c1ccccc1C2 | 1.8 | 1.36 | 2.02 | 3.12 | 1.64 |  |  |
| CN(C)CCCNc1c2c(nc3ccc(Cl)cc13)-c1ccccc1C2 | 1.11 | 0.91 | 2.31 | 2.14 | 2.3 |  |  |
| CN(C)CCCNc1c2c(nc3ccccc13)-c1ccccc1C2 | 0.95 | 0.31 | 1.66 | 2.6 | 0.91 |  |  |
| COc1cc2c(cc1OC)-c1nc3ccc(C)cc3c(NCCN(C)C)c1C2 | 2.46 | 2.39 | 4.99 | 2.57 | 3.01 |  |  |
| COc1cc2c(cc1OC)-c1nc3ccccc3c(NCCCN3CCOCC3)c1C2 | 2.52 | 2.77 | 5 | 3.94 | 4.97 |  |  |
| COc1cc2c(cc1OC)-c1nc3ccc(Cl)cc3c(NCCCN3CCOCC3)c1C2 | 4.13 | 2.23 | 2.4 | 7.6 | 3.8 |  |  |
| Fc1ccc2nc3c(c(NCCCN4CCOCC4)c2c1)Cc1ccccc1-3 | 2.79 | 1.9 | 6.66 | 4.46 | 3.05 |  |  |
| COc1cc2c(cc1OC)-c1nc3ccc(F)cc3c(NCCN(C)C)c1C2 | 2.35 | 2.2 | 5.73 | 1.77 | 4.38 |  |  |
| COc1cc2c(cc1OC)-c1nc3ccc(Br)cc3c(NCCN(C)C)c1C2 | 2.73 | 1.53 | 2.83 | 1.61 | 6.95 |  |  |
| Cc1ccc2nc3c(c(NCCN(C)C)c2c1)Cc1ccccc1-3 | 0.92 | 0.31 | 1.03 | 1.71 | 1.15 |  |  |
| COc1cc2c(cc1OC)-c1nc3ccc(Cl)cc3c(NCCCN(C)C)c1C2 | 1.58 | 2.09 | 1.95 | 4.18 | 2.6 |  |  |
| COc1cc2c(cc1OC)-c1nc3ccc(Br)cc3c(NCCCN3CCOCC3)c1C2 | 3.38 | 2.64 | 4.25 | 3.97 | 5.02 |  |  |
| CN(C)CCNc1c2c(nc3ccc(F)cc13)-c1ccccc1C2 | 1.78 | 1.15 | 2.89 | 2.59 | 3.22 |  |  |
| COc1cc2c(cc1OC)-c1nc3ccc(Br)cc3c(NCCCN(C)C)c1C2 | 3.66 | 4.97 | 5.73 | 6.38 | 7.06 |  |  |
